{
  "source": "paper PMC6813931",
  "about": "“Choline Kinase Emerges as a Promising Drug Target in Gram-Positive Bacteria” (Frontiers in Microbiology, 2019)",
  "key": {"[1]": {"biological_target": "T1, sChoK (S. pneumoniae isoform of choline kinase, LicA) (Streptococcus pneumoniae, UniProt Q8DPI4)", "T1 construct": "gene pck; ChoK activity measured in cell extracts", "T1 sequence (Q8DPI4 1-289)": "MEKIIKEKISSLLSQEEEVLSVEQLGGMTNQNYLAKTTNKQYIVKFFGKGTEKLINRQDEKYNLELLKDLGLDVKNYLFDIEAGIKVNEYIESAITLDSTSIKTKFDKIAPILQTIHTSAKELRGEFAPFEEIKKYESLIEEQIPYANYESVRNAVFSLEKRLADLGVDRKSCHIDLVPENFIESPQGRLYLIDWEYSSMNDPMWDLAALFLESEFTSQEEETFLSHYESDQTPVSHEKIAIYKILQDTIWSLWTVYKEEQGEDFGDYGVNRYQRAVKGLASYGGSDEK", "test": "sChoK activity inhibition (authors' earlier work)", "format": "biochemical", "conditions": "authors' own earlier result (Zimmerman and Ibrahim 2017), restated here; cited from earlier work", "text": "sChoK activity inhibition (authors' earlier work) on sChoK (S. pneumoniae isoform of choline kinase, LicA)"}, "[2]": {"biological_target": "T1, sChoK (S. pneumoniae isoform of choline kinase, LicA)", "test": "colorimetric ChoK activity assay in cell extracts", "format": "biochemical", "text": "colorimetric ChoK activity assay in cell extracts on sChoK (S. pneumoniae isoform of choline kinase, LicA)"}},
  "data": [
    {"smiles": "C[N+]1(C)CCOC(O)(c2ccc(-c3ccc(C4(O)C[N+](C)(C)CCO4)cc3)cc2)C1", "note": "(stereo not drawn) [HC-3]", "values": [
      {"measurement": "IC50", "setting": "[1]", "value": "> 2.7", "unit": "mM"}
    ]},
    {"smiles": "CN(C)c1cc[n+](Cc2ccc(CCCCc3ccc(C[n+]4ccc(N(C)C)cc4)cc3)cc2)cc1", "note": "[MN58b]", "values": [
      {"measurement": "IC50", "setting": "[2]", "value": 197, "unit": "µM"}
    ]},
    {"smiles": "CN(c1ccc(Cl)cc1)c1cc[n+](Cc2ccc(-c3ccc(C[n+]4ccc(N(C)c5ccc(Cl)cc5)c5ccccc54)cc3)cc2)c2ccccc12", "note": "[RSM-932A]", "values": [
      {"measurement": "IC50", "setting": "[2]", "value": 0.5, "unit": "µM"}
    ]}
  ]
}
